Measurements as given in US9790203B2, “Inhibitor compounds of phosphodiesterase type 10A” (ABBVIE DEUTSCHLAND GMBH & CO. KG, priority 2012, dated 2017).

How the values were obtained:
[1] = Microsomal half-life / microsomal clearance, rat liver microsomes; format: in vitro ADME; details: 0.5 μM test substance, 0.25 mg microsomal protein/ml, pH 7.4, 37° C.
Description: (§1) The metabolic stability of the compounds of the invention was determined in the following assay.
(§2) The test substances were incubated in a concentration of 0.5 μM as follows:
(§3) 0.5 μM test substance are preincubated together with liver microsomes from different species (from rat, human or other species) (0.25 mg of microsomal protein/ml) in 0.05 M potassium phosphate buffer of pH 7.4 in microtiter plates at 37° C. for 5 min. The reaction is started by adding NADPH (1 mg/mL). After 0, 5, 10, 15, 20 and 30 min, 50 μl aliquots are removed, and the reaction is immediately stopped and cooled with the same volume of acetonitrile. The samples are frozen until analyzed. The remaining concentration of undegraded test substance is determined by MSMS. The half-life (T1/2) is determined from the gradient of the signal of test substance/unit time plot, it being possible to calculate the half-life of the test substance, assuming first order kinetics, from the decrease in the concentration of the compound with time. The microsomal clearance (mCl) is calculated from mCl=ln 2/T1/2/(content of microsomal protein in mg/ml)×1000 [ml/min/mg] (modified from references: Di, The Society for Biomoleculur Screening, 2003, 453-462; Obach, DMD, 1999 vol 27. N 11, 1350-1359).

[2] = target: PDE10A (Homo sapiens (Human), UniProt Q9Y233); experiment: Measurement of PDE activity (HTRF cAMP kit, recombinant PDE); format: biochemical; details: recombinant PDE10, 20 nM cyclic nucleotide substrate, 60 minutes at 29 C
Sequence of PDE10A (Q9Y233 whole entry, species assumed, canonical isoform): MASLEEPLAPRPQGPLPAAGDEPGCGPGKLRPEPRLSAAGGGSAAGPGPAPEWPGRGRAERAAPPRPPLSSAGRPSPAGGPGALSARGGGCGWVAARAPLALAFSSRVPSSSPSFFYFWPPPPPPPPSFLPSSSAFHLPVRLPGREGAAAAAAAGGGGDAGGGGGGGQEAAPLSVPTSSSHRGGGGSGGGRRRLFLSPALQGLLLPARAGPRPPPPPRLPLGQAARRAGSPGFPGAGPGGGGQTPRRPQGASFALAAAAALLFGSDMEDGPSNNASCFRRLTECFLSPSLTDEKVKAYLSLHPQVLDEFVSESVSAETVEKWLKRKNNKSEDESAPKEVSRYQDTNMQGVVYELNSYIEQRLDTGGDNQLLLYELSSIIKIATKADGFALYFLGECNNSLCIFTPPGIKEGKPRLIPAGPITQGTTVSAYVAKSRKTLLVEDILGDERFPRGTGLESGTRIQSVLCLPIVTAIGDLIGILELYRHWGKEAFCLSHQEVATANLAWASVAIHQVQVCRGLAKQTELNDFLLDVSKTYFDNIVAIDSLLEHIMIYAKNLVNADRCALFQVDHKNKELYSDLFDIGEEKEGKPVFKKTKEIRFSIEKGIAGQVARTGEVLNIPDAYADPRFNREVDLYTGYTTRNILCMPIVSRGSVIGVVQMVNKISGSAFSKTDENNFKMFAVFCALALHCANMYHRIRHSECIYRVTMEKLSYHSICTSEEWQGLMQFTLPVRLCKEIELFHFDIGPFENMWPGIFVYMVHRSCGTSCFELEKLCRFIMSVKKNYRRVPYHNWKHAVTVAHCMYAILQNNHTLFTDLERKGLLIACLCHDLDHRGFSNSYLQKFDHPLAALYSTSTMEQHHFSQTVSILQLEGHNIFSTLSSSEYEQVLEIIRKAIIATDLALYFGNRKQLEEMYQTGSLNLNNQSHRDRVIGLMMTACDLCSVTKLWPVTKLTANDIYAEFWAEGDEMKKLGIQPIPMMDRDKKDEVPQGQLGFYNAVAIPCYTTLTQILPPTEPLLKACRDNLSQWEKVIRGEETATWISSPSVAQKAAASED
Description: The recombinant PDE proteins are used in in vitro enzymatic reaction for measurement of PDE activity. These recombinant proteins, including PDE10A (human, rat and mouse PDE10) and isoforms of PDEs 1, 3, 4, and 5, were purchased from commercial vendor BPS Bioscience. The enzymatic activity of PDEs was determined by cAMP measurement kit from CisBio (IBA) using HTRF technology.
The PDE enzymatic reaction was carried out in assay buffer (20 mM Tris-HCl pH7.5, 10 mM MgCl2, 0.1% bovine serum albumin) containing enzyme and substrate. […] The substrate cyclic nucleotide (cAMP or cGMP) concentration used in the assay was 20 nM for PDE10, and 100 nM for other PDEs. The inhibitory effect of compound was determined by incubating various concentration of inhibitor in the enzymatic assay. […] Next, the compound at varying concentration was mixed with PDE enzyme. The reaction was initiated by addition of cyclic nucleotide substrate, and incubated for 60 minutes at 29 C. The reaction was stopped by addition of lysis buffer from assay kit. The cAMP-d2 and anti-cAMP cryptate in the lysis buffer detected the level of cAMP left from the PDE hydrolysis reaction. […] Thus, IC50 value of inhibitor can be obtained by plotting inhibitor concentration against PDE activity at that concentration.

[3] = Microsomal half-life / microsomal clearance, human liver microsomes; format: in vitro ADME; details: 0.5 μM test substance, 0.25 mg microsomal protein/ml, pH 7.4, 37° C.
Description: as §1, §2, §3

[4] = tested on: rats; details: cited from earlier work
[5] = tested on: rats; details: cited from earlier work; remark: listed apart in the source
[6] = tested on: rats; details: cited from earlier work; remark: listed apart in the source

Row | SMILES | Rat mCl [1] | IC50 [2] | Human mCl [3] | catalepsy on its own ([4]; papaverine alone) | cataleptic effect of the D2 receptor antagonist haloperidol ([4]; with haloperidol) | reduction of amphetamine-induced hyperactivity [5] | hyperactivity induced by PCP [6]
1 | Cc1cccc(C#Cc2ccc(-c3c(-c4ccncc4)cnn3C)cc2)n1 [Example 26, 2-methyl-6-[2-[4-[2-methyl-4-(4-pyridyl)pyrazol-3-yl]phenyl]ethynyl]pyridine] | ++ (<100 μl min^−1 mg^−1) | < 0.1 µM | ++ (<100 μl min^−1 mg^−1) |  |  |  | 
2 | Cc1cccc(C#Cc2ccc(-c3nn(C)cc3-c3ccnn3C)cc2)n1.Cl [Example 27, 2-methyl-6-[2-[4-[1-methyl-4-(2-methylpyrazol-3-yl)pyrazol-3-yl]phenyl]ethynyl]-pyridine hydrochloride] | + (100-220 μl min^−1 mg^−1) | 0.1 to 0.2 µM | ++ (<100 μl min^−1 mg^−1) |  |  |  | 
3 | Cc1cccc(C#Cc2ccc(-c3nn(C)cc3-c3cccnc3)cc2)n1.O=C(O)C(F)(F)F [Example 29, 2-methyl-6-[2-[4-[1-methyl-4-(3-pyridyl)pyrazol-3-yl]phenyl]ethynyl]pyridine; 2,2,2-trifluoroacetic acid] | ++ (<100 μl min^−1 mg^−1) | 0.2 to 0.5 µM | ++ (<100 μl min^−1 mg^−1) |  |  |  | 
4 | COc1cc(-c2nn(C)cc2-c2ccncc2)ccc1C#Cc1cccc(C)n1.O=C(O)C(F)(F)F [Example 32, 2-[2-[2-methoxy-4-[1-methyl-4-(4-pyridyl)pyrazol-3-yl]phenyl]ethynyl]-6-methylpyridine; 2,2,2-trifluoroacetic acid] | + (100-220 μl min^−1 mg^−1) | < 0.1 µM | ++ (<100 μl min^−1 mg^−1) |  |  |  | 
5 | COc1ccc(Cc2nccc3cc(OC)c(OC)cc23)cc1OC [Papaverine, papaverine] |  |  |  | did not cause catalepsy on its own | potentiated the cataleptic effect | insignificant | reduced hyperactivity
